Results taken from US20020147136A1, “Compounds for targeting endothelial cells, compositions containing the same and methods for their use” (priority 2000, published 2002).

How the values were obtained:
NP-1/Fc = test: Inhibition of 125I-VEGF165 binding to NP-1/Fc
Method: The ability of various compositions comprising TKPPR monomers or multimers to inhibit ^125I-VEGF binding to NP-1 was evaluated using NP-1/Fc. Competitive binding assays with microtiter plates coated with NP-1/Fc (R&D sytems) were performed using ^125I-VEGF165 as radioligand (Amersham Pharmacia Biotech Cat. No. IM274, Specific Activity: 1000-2500 Ci/mmol). […] Plates (Nunc MaxiSorp white opaque Microtiter plate [C-bottom, 437796]) were coated by incubating the wells with 75 µl of a solution containing 3 μlg/mL NP-1/Fc in D-PBS/0.1% NaAzide overnight at 4° C. after covering with sealing tape (Dynex, VWR Cat. No. 62402-931). […] All points were derived from triplicate wells, and for each set of replicates in NP-1/Fc-coated wells, a companion set in the absence of the receptor was included. For competitive binding, a series of unlabelled competitor concentrations were prepared in a 250 pM solution of ^1251-VEGF165 in assay buffer Solutions were added to 1.2 ml polypropylene tubes conforming to the microtiter format (Costar Cat. No. 29442-602), and transferred from these tubes to microtiter wells, without further dilution, using a multichannel pipettor. After addition of the appropriate solutions, microtiter plates were incubated at 4° C. for 2 hours. […] The plates were blotted dry and 25 μl deionized water and 100 μl scintillation fluid (Optiphase SuperMix, Wallac) were added to each well. Plates were agitated using a Plate Shaker (Hyperion, Cat. No. 4030-100F) for 3-5 minutes and were then counted using a Microplate Scintillation Counter (Wallac Microbeta Trilux) A set of serially diluted 125I-VEGF165 standard wells ranging from 200 to 0.04 pM were included with each experiment to aid in quantification of the amount of radiolabel bound.

KDR-Fc = biological target: T1, KDR-Fc (Homo sapiens, UniProt P35968); test: Inhibition of 125I-VEGF165 binding to KDR-Fc; conditions: at the highest concentrations tested
T1 construct: purchased R&D Systems

Neuropilin-1/Fc = test: Fluorescence polarization binding to NP-1/Fc; conditions: Oregon Green-labeled ligand 5-20 nM, 37° C., D-PBS pH 7.4; different experiments
Method: The ability of various compositions comprising TKPPR monomers or multimers to bind to NP-1/Fc and KDR-Fc was evaluated using FP. The binding studies of various Oregon Green (OG)-labeled compounds comprising TKPPR monomers or multimers and related compounds with Neuropilin-1/Fc, and KDR-Fc (both from R&D Systems), were carried out at 37° C. in D-PBS buffer (pH 7.4). FP values (mP) for each substrate was measured by titrating the ligand (5-20 nM) with receptor protein using a Jolley Research and Consulting FPM-1 fluorescence Polarization analyzer. In each of these experiments the observed polarization values were plotted against receptor concentration. The mP values for 100% binding of tracer labeled ligand to receptor protein was calculated using the software provided by the vendor.

[1] = test system: Human Umbilical Vein Endothelial Cells (HUVECS)
Method: The ability of compositions comprising a TKPPR monomer and a TKPPR multimer to inhibit ^125I-VEGF binding to endothelial cells was evaluated using HUVECs.

[2] = test system: Human aortic endothelial cells (HAEC); test: TKPPR-conjugated fluorescent bead binding to HAEC, static; type: cell-based
Method: Human aortic endothelial cells (HAEC) from Biowhittaker were grown as monolayers in EGM-MV medium from Biowhittaker according to the supplier's instructions.
Briefly, a frozen cryovial of cells (500,000 cells in about 1 mL) was thawed for 2-3 minutes in a 37° C. water bath and cells were seeded into a T-75 flask coated with collagen I (commercially available) containing 15 mL EGM-MV of medium pre-equilibrated with 5% CO2 atmosphere. Cells were incubated in a standard tissue culture incubator at 37° C. HAEC were subcultured for up to 3 additional passages, using the following protocol:
For binding studies and characterization, pelleted cells were diluted to a concentration of 16,560 cells per mL, and 0.5 mL was seeded into each well of an 8-well chamber slide (Collagen I-coated, Becton Dickinson) to generate a seeding density of 12,000 cells/cm^2. Cells seeded into chamber slides were used for assays after 7 to 10 days, and were not further propagated.
TKPPR (see preparation described in the Example 1) was attached to red fluorescent carboxylate-modified FluoSpheres™ (Molecular Probes), which are 2.0 μm microspheres provided at 3.9×10^9 particles/mL of distilled water. 1.0 mg TKPPR was combined with 0.5 mLof 50 mM MES buffer (2-[N-Morpholino]ethanesulfonic acid, (commercially available), pH 6.0 and 0.2 mL FluoSpheres (7.8×10^8 spheres) in a 1.5 mL Eppendorf snap top, polypropylene centrifuge tube and rotated for 30 min at room temperature (RT). Then 2.8 mg EDAC (1-ethyl-3-(3-dimethylaminopropyl)carbodiimide hydrochloride, (commercially available) in 0.025 mL MES was added and the tube was rotated for 2 h at RT. Following the addition of 0.005 mL 1 N NaOH and 5.7 mg glycine in 0.025 mL MES, the tube was rotated for 30 min more at RT. The beads were then washed by employing three cycles of centrifugation at 14,000 rpm (20,800× g) in an Eppendorf 5417R centrifuge for 15 min, discarding the resulting supernatant, and resuspending in D-PBS. Storage was at 4° C. in 0.4 mL DPBS containing 0.05% NaN3 (final bead concentration was about 1.95×10^9/mL).
Final bead concentration was 1.95×10^7/mL. […]
Bead binding and localization was assessed at 200× magnification using the same microscopy equipment as described above. […] Finally, the processed images were inverted into black on a white background using Scion Image software (version beta 3b) and the integrated density was measured with the whole field selected.
The incubation time was decreased to 15 min on an orbital shaker, and the washes (3) were carried out using D-PBS containing 0.1% Tween 20 (Sigma). […] TKPPR-bead binding was quantitated in three fields, the other bead types were quantitated in one field only. Bound beads were quantitated by manual counting.

HAEC = test: TKPPR-bead binding to endothelial cells under flow; type: cell-based, human; conditions: flow 1.91 mL/min, 37° C.
Method: Circular 40 mm diameter glass coverslips (Bioptechs, Cat No. 40-1313-0319) were first derivative by dipping in 3-aminopropyltriethoxysilane (Pierce, Cat No. 80370ZZ), 20% in acetone (HPLC grade, Sigma Aldrich Cat No. 27,072-5), rinsed in acetone, and air-dried. After autoclaving, the derivatized coverslips were placed into 60 mm round, sterile culture dishes, one coverslip per dish. Five mL of a Collagen I solution (Becton Dickinson, Cat No. 40236), 41.6 μg/mL in 20 mM acetic acid (adjusted to pH 6.7 with NaOH), was added to each coverslip-containing dish. After 15 min, 0.25 mL of 11.5 mg/mL bis(sulfosuccinimidyl) suberate (Pierce, Cat No. 21580ZZ) was added to each dish and mixed in by swirling. After a 105-minute incubation, the dishes were drained and 5 mL of sterile TBS (20 mM Tris-HCl, pH 7.5, 140 mM NaCl) was added to each dish. […]
Coverslips containing confluent HAEC were mounted into a Bioptechs FCS2 parallel plate flow cell mounted on an Olympus IMT-2 inverted microscope. […] Wall shear stress T, in dynes/cm^2, was calculated using the equation (Lawrence et al., Blood 75:227-237, 1990): [formula]
Bead binding of equal numbers of red fluorescent beads conjugated with TKPPR and green fluorescent beads conjugated with glycine was monitored after increasing lengths of perfusion and variable lengths of subsequent washing with the same solution lacking microspheres.

T1 sequence (P35968 with tags, fused parts or gaps limits assumed): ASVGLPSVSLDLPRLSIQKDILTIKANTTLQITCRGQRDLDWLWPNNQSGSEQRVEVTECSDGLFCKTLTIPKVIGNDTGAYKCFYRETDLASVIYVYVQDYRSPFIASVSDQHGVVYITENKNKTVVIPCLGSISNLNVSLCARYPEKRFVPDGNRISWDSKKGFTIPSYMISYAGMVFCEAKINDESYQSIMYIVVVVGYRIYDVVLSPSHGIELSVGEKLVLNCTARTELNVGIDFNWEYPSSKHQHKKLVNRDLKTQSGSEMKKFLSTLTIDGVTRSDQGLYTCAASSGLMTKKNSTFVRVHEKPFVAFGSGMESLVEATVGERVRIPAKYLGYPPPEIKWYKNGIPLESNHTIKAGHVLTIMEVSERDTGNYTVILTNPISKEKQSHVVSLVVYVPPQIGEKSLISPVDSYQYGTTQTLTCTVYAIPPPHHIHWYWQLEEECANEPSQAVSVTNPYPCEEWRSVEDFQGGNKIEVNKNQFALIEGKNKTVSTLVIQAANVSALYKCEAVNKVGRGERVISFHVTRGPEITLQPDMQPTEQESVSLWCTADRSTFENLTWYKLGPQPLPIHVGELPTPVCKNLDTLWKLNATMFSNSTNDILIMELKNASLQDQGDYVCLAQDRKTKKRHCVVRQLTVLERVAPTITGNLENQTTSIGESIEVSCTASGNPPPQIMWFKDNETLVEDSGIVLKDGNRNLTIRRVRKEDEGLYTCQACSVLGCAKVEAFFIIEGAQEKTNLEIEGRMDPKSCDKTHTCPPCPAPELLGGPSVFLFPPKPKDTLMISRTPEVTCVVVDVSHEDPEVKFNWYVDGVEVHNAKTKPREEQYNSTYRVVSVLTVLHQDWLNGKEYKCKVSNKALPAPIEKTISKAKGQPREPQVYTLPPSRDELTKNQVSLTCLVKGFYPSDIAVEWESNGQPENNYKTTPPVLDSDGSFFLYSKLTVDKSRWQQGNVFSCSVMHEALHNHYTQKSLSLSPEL

Question: How did the “fold more potent than the monomer” value (NP-1/Fc) turn out when `C/C(=N\O)C(C)(C)NOCCNC(C)(C)/C(CCNC(=O)CCCCCC(=O)NCC(=O)N(CCC(=O)NCC(=O)N(CCC(=O)NCCOCCOCC(=O)N[C@H](C(=O)N[C@@H](CCCCN)C(=O)N1CCC[C@H]1C(=O)N1CCC[C@H]1C(=O)N[C@@H](CCCNC(=N)N)C(=O)O)[C@@H](C)O)CCC(=O)NCCOCCOCC(=O)N[C@H](C(=O)N[C@@H](CCCCN)C(=O)N1CCC[C@H]1C(=O)N1CCC[C@H]1C(=O)N[C@@H](CCCNC(=N)N)C(=O)O)[C@@H](C)O)CCC(=O)NCC(=O)N(CCC(=O)NCCOCCOCC(=O)N[C@H](C(=O)N[C@@H](CCCCN)C(=O)N1CCC[C@H]1C(=O)N1CCC[C@H]1C(=O)N[C@@H](CCCNC(=N)N)C(=O)O)[C@@H](C)O)CCC(=O)NCCOCCOCC(=O)N[C@H](C(=O)N[C@@H](CCCCN)C(=O)N1CCC[C@H]1C(=O)N1CCC[C@H]1C(=O)N[C@@H](CCCNC(=N)N)C(=O)O)[C@@H](C)O)=N/O` [BRU-326] was run?
Answer: The value was 230 to 330 fold.

Question: And the IC50 (NP-1/Fc; 250 pM 125I-VEGF165, 4° C., 2 hours)?
Answer: The IC50 was 130 nM.

Question: What about the “inhibition of 125I-VEGF165 binding to KDR” value (KDR-Fc) of the same compound?
Answer: Its value is “none”.

Question: And the Kd (Neuropilin-1/Fc)?
Answer: The Kd was 25 to 50 nM.

Question: And the IC50 [1]?
Answer: The IC50 was 10000 nM.

Question: With GRGDSP as the compound, how does the “Integrated density of bound beads” value ([2]; Experiment 1, 1.95×10^7 beads/mL, 30 min, HAEC monolayer) read?
Answer: The value was 28.59 arbitrary units.

Question: And the “Number of bound beads” value ([2]; Experiment 2, 4.9×10^6 beads/mL, 15 min, manual counting, TKPPR average of three fields, others one field)?
Answer: Its value is 2.

Question: For Glycine, which “Beads bound at 1.53 dynes/cm^2” value (HAEC) is on record?
Answer: Its value is 10.
